# Source: PubChem BioAssay (NCI)
#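 Method: 48-hour compound exposure of cells in 96-well plates, five concentrations, linear interpolation of endpoints. At the GI50, growth is halved. Definition used: TGI = concentration required for complete inhibition of growth.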
# Assays:
# Test in all cases: growth of human tumour cells (NCI), 48 h
# SR leukemia = system: SR leukemia
# SF-268 CNS = system: SF-268 CNS
# OVCAR-8 ovarian = system: OVCAR-8 ovarian
# MDA-MB-435 = system: MDA-MB-435
# UO-31 renal = system: UO-31 renal
# A549 NSCLC = system: A549 NSCLC
# OVCAR-4 ovarian = system: OVCAR-4 ovarian
# NCI-H226 lung = system: NCI-H226 lung
# DU-145 prostate = system: DU-145 prostate
# NCI-H23 lung = system: NCI-H23 lung
# COLO 205 colon = system: COLO 205 colon
# TK-10 renal = system: TK-10 renal
# IGROV1 ovarian = system: IGROV1 ovarian
# LOX IMVI melanoma = system: LOX IMVI melanoma
# MALME-3M melanoma = system: MALME-3M melanoma
# HT29 colon = system: HT29 colon
# EKVX NSCLC = system: EKVX NSCLC
# HCC-2998 colon = system: HCC-2998 colon
# A498 renal = system: A498 renal
# CAKI-1 renal = system: CAKI-1 renal
# HCT-116 colon = system: HCT-116 colon
# BT-549 breast = system: BT-549 breast
# HOP-92 NSCLC = system: HOP-92 NSCLC
# 786-0 renal = system: 786-0 renal
# NCI-H460 lung = system: NCI-H460 lung
# KM12 colon = system: KM12 colon
# SF-539 CNS = system: SF-539 CNS
# SNB-19 CNS = system: SNB-19 CNS
# M14 melanoma = system: M14 melanoma
# HCT-15 colon = system: HCT-15 colon
# UACC-257 melanoma = system: UACC-257 melanoma
# SK-MEL-2 melanoma = system: SK-MEL-2 melanoma
# SN12C renal = system: SN12C renal
# K-562 leukemia = system: K-562 leukemia
# NCI-H522 lung = system: NCI-H522 lung
# MDA-N = system: MDA-N
# RPMI-8226 leukemia = system: RPMI-8226 leukemia
# SW-620 colon = system: SW-620 colon
# SK-MEL-5 melanoma = system: SK-MEL-5 melanoma
# OVCAR-3 ovarian = system: OVCAR-3 ovarian
# UACC-62 melanoma = system: UACC-62 melanoma
# SK-MEL-28 melanoma = system: SK-MEL-28 melanoma
# PC-3 prostate = system: PC-3 prostate
# SK-OV-3 ovarian = system: SK-OV-3 ovarian
# HOP-62 NSCLC = system: HOP-62 NSCLC
# HS 578T breast = system: HS 578T breast
# MDA-MB-231 breast = system: MDA-MB-231 breast
# U251 CNS = system: U251 CNS
# MCF7 breast = system: MCF7 breast
# NCI/ADR-RES ovarian = system: NCI/ADR-RES ovarian
# OVCAR-5 ovarian = system: OVCAR-5 ovarian
# ACHN renal = system: ACHN renal
# T-47D breast = system: T-47D breast
# SF-295 CNS = system: SF-295 CNS
# CCRF-CEM leukemia = system: CCRF-CEM leukemia
# SNB-75 CNS = system: SNB-75 CNS
# RXF 393 renal = system: RXF 393 renal
# MOLT-4 leukemia = system: MOLT-4 leukemia
smiles,measurement,setting,value
OCC1CC[N-]CC1.OCC1CC[N-]CC1.[Cl][Pt+2]([Cl])([Cl])[Cl],GI50,SR leukemia,8.08 µM
same,GI50,SF-268 CNS,40.5 µM
same,GI50,OVCAR-8 ovarian,31.1 µM
same,GI50,MDA-MB-435,24.4 µM
same,TGI,MDA-MB-435,64.9 µM
same,GI50,UO-31 renal,31.2 µM
same,TGI,UO-31 renal,89.9 µM
same,GI50,A549 NSCLC,52.7 µM
same,GI50,OVCAR-4 ovarian,42.5 µM
same,GI50,NCI-H226 lung,39.5 µM
same,GI50,DU-145 prostate,20.8 µM
same,TGI,DU-145 prostate,61.5 µM
same,GI50,NCI-H23 lung,28.6 µM
same,GI50,COLO 205 colon,29.3 µM
same,GI50,TK-10 renal,37.3 µM
same,GI50,IGROV1 ovarian,25.2 µM
same,GI50,LOX IMVI melanoma,11.4 µM
same,GI50,MALME-3M melanoma,36.4 µM
same,GI50,HT29 colon,17.1 µM
same,TGI,HT29 colon,51.7 µM
same,GI50,EKVX NSCLC,30.7 µM
same,GI50,HCC-2998 colon,35.4 µM
same,GI50,A498 renal,95.3 µM
same,GI50,CAKI-1 renal,20.3 µM
same,TGI,CAKI-1 renal,81.5 µM
same,GI50,HCT-116 colon,25.6 µM
same,TGI,HCT-116 colon,86.5 µM
same,GI50,BT-549 breast,27 µM
same,GI50,HOP-92 NSCLC,34.2 µM
same,TGI,HOP-92 NSCLC,87 µM
same,GI50,786-0 renal,34.9 µM
same,GI50,NCI-H460 lung,27.9 µM
same,TGI,NCI-H460 lung,95.7 µM
same,GI50,KM12 colon,28.9 µM
same,TGI,KM12 colon,77.3 µM
same,GI50,SF-539 CNS,41.9 µM
same,GI50,SNB-19 CNS,48 µM
same,GI50,M14 melanoma,22.2 µM
same,TGI,M14 melanoma,65 µM
same,GI50,HCT-15 colon,27.8 µM
same,GI50,UACC-257 melanoma,31 µM
same,GI50,SK-MEL-2 melanoma,27 µM
same,TGI,SK-MEL-2 melanoma,67.3 µM
same,GI50,SN12C renal,30.8 µM
same,GI50,K-562 leukemia,35.9 µM
same,GI50,NCI-H522 lung,9.53 µM
same,TGI,NCI-H522 lung,46.3 µM
same,GI50,MDA-N,28.9 µM
same,GI50,RPMI-8226 leukemia,15.2 µM
same,TGI,RPMI-8226 leukemia,53.1 µM
same,GI50,SW-620 colon,23 µM
same,GI50,SK-MEL-5 melanoma,34.5 µM
same,GI50,OVCAR-3 ovarian,45.9 µM
same,GI50,UACC-62 melanoma,29.4 µM
same,GI50,SK-MEL-28 melanoma,60 µM
same,TGI,PC-3 prostate,73 µM
same,GI50,SK-OV-3 ovarian,36.9 µM
same,GI50,HOP-62 NSCLC,33.1 µM
same,GI50,HS 578T breast,45.8 µM
same,GI50,MDA-MB-231 breast,33.6 µM
same,GI50,U251 CNS,19.6 µM
same,TGI,U251 CNS,53 µM
same,GI50,MCF7 breast,26.2 µM
same,GI50,NCI/ADR-RES ovarian,33.8 µM
same,GI50,OVCAR-5 ovarian,22.7 µM
same,TGI,OVCAR-5 ovarian,51.5 µM
same,GI50,ACHN renal,38.8 µM
same,GI50,T-47D breast,15.2 µM
same,TGI,T-47D breast,58.1 µM
CCN1/C(=C/C#C/C(C)=C\c2sc3ccc(Cl)cc3[n+]2CC)Sc2ccc(Cl)cc21,TGI,SR leukemia,> 100 µM
same,TGI,SF-268 CNS,21.4 µM
same,TGI,OVCAR-8 ovarian,17 µM
same,TGI,MDA-MB-435,13.7 µM
same,TGI,SF-295 CNS,14.9 µM
same,TGI,UO-31 renal,14.5 µM
same,TGI,A549 NSCLC,22 µM
same,TGI,OVCAR-4 ovarian,> 100 µM
same,TGI,NCI-H226 lung,21.9 µM
same,TGI,DU-145 prostate,15.5 µM
same,TGI,COLO 205 colon,3.21 µM
same,TGI,TK-10 renal,> 100 µM
same,TGI,IGROV1 ovarian,14.5 µM
same,TGI,LOX IMVI melanoma,14.6 µM
same,TGI,MALME-3M melanoma,6.84 µM
same,TGI,HT29 colon,14 µM
same,TGI,EKVX NSCLC,20.8 µM
same,TGI,HCC-2998 colon,17.6 µM
same,TGI,CAKI-1 renal,7.13 µM
same,TGI,HCT-116 colon,12.3 µM
same,TGI,BT-549 breast,6 µM
same,TGI,HOP-92 NSCLC,5.52 µM
same,TGI,786-0 renal,15.1 µM
same,TGI,CCRF-CEM leukemia,> 100 µM
same,TGI,NCI-H460 lung,> 100 µM
same,TGI,KM12 colon,19.4 µM
same,TGI,SF-539 CNS,16.1 µM
same,TGI,SNB-19 CNS,18.9 µM
same,TGI,M14 melanoma,16.1 µM
same,TGI,HCT-15 colon,> 100 µM
same,TGI,UACC-257 melanoma,22 µM
same,TGI,SK-MEL-2 melanoma,4.85 µM
same,TGI,SN12C renal,16.1 µM
same,TGI,NCI-H522 lung,6.02 µM
same,TGI,MDA-N,12.9 µM
same,TGI,SK-MEL-5 melanoma,5.26 µM
same,TGI,SNB-75 CNS,9.98 µM
same,TGI,UACC-62 melanoma,13.6 µM
same,TGI,SK-MEL-28 melanoma,26.5 µM
same,TGI,PC-3 prostate,9.11 µM
same,TGI,RXF 393 renal,21.3 µM
same,TGI,SK-OV-3 ovarian,22 µM
same,TGI,HOP-62 NSCLC,29 µM
same,TGI,HS 578T breast,28.8 µM
same,TGI,MDA-MB-231 breast,19.7 µM
same,TGI,U251 CNS,23.2 µM
same,TGI,MCF7 breast,15.3 µM
same,TGI,NCI/ADR-RES ovarian,80.4 µM
same,TGI,OVCAR-5 ovarian,21.3 µM
same,TGI,ACHN renal,14.8 µM
same,TGI,T-47D breast,17.6 µM
CSC(=O)/C=C1\SS/C(=C\C(=O)SC)S1,TGI,SR leukemia,> 100 µM
same,TGI,SF-268 CNS,6.72 µM
same,TGI,OVCAR-8 ovarian,11.7 µM
same,TGI,MDA-MB-435,7.08 µM
same,TGI,SF-295 CNS,13.7 µM
same,TGI,UO-31 renal,6.89 µM
same,TGI,A549 NSCLC,19.6 µM
same,TGI,OVCAR-4 ovarian,> 41.2 µM
same,TGI,NCI-H226 lung,3.41 µM
same,TGI,DU-145 prostate,15.7 µM
same,TGI,NCI-H23 lung,27.6 µM
same,TGI,COLO 205 colon,30.6 µM
same,TGI,TK-10 renal,15.5 µM
same,TGI,IGROV1 ovarian,11.6 µM
same,TGI,LOX IMVI melanoma,3.09 µM
same,TGI,MALME-3M melanoma,4.6 µM
same,TGI,HT29 colon,7.03 µM
same,TGI,EKVX NSCLC,6.68 µM
same,TGI,HCC-2998 colon,3.33 µM
same,TGI,A498 renal,21.5 µM
same,TGI,CAKI-1 renal,4.25 µM
same,TGI,HCT-116 colon,3.29 µM
same,TGI,BT-549 breast,3.26 µM
same,TGI,HOP-92 NSCLC,7.87 µM
same,TGI,786-0 renal,4.03 µM
same,TGI,CCRF-CEM leukemia,> 100 µM
same,TGI,NCI-H460 lung,7.61 µM
same,TGI,KM12 colon,13 µM
same,TGI,SF-539 CNS,6.93 µM
same,TGI,SNB-19 CNS,20.7 µM
same,TGI,M14 melanoma,5.24 µM
same,TGI,HCT-15 colon,6.07 µM
same,TGI,UACC-257 melanoma,11.3 µM
same,TGI,SK-MEL-2 melanoma,4.93 µM
same,TGI,SN12C renal,3.79 µM
same,TGI,K-562 leukemia,> 100 µM
same,TGI,NCI-H522 lung,6.34 µM
same,TGI,MDA-N,8.37 µM
same,TGI,RPMI-8226 leukemia,5.27 µM
same,TGI,SW-620 colon,4.15 µM
same,TGI,SK-MEL-5 melanoma,6.79 µM
same,TGI,OVCAR-3 ovarian,11.2 µM
same,TGI,SNB-75 CNS,10.5 µM
same,TGI,UACC-62 melanoma,2.87 µM
same,TGI,MOLT-4 leukemia,> 100 µM
same,TGI,SK-MEL-28 melanoma,6.34 µM
same,TGI,PC-3 prostate,9.32 µM
same,TGI,RXF 393 renal,2.8 µM
same,TGI,HOP-62 NSCLC,20.4 µM
same,TGI,HS 578T breast,13.8 µM
same,TGI,MDA-MB-231 breast,4.85 µM
same,TGI,U251 CNS,6.03 µM
same,TGI,MCF7 breast,9.19 µM
same,TGI,NCI/ADR-RES ovarian,8.71 µM
same,TGI,OVCAR-5 ovarian,13.7 µM
same,TGI,ACHN renal,10.2 µM
same,TGI,T-47D breast,20.6 µM
